Consider ten compounds from patent publication EP1974608A1, “Arylpyridazines as fungicides” (Bayer CropScience AG, priority 2007, dated 2008).

Series [1] in a line: logP determination by reversed-phase HPLC (C18), EEC Directive 79/831 Annex V.A8. In kind it is physicochemical.
The subject of series [2] is Alternaria solani. Nature of the series: Alternaria test (tomato) / protective. In kind it is in vivo. Conditions: 500ppm Wirkstoff; protective spray on young tomato plants; evaluated 7 days after inoculation. From the text: Alternaria-Test (Tomate) / protektiv
(§1) Zur Herstellung einer zweckmäßigen Wirkstoffzubereitung vermischt man 1 Gewichtsteil Wirkstoff mit den angegebenen Mengen Lösungsmittel und Emulgator und verdünnt das Konzentrat mit Wasser auf die gewünschte Konzentration.
Zur Prüfung auf protektive Wirksamkeit bespritzt man junge Tomatenpflanzen mit der Wirkstoffzubereitung in der angegebenen Aufwandmenge. 1 Tag nach der Behandlung werden die Pflanzen mit einer Sporensuspension von Alternaria solani inokuliert und stehen dann 24h bei 100% rel. Feuchte und 20°C. Anschließend stehen die Pflanzen bei 96% rel. Luftfeuchtigkeit und einer Temperatur von 20°C.
7 Tage nach der Inokulation erfolgt die Auswertung. Dabei bedeutet 0 % ein Wirkungsgrad, der demjenigen der Kontrolle entspricht, während ein Wirkungsgrad von 100 % bedeutet, dass kein Befall beobachtet wird.

Series [3] deals with Venturia inaequalis. Nature of the series: Venturia test (apple) / protective. Conditions: 100ppm Wirkstoff; protective spray on young apple plants; evaluated 10 days after inoculation. In kind it is in vivo.
Description: Venturia - Test (Apfel) / protektiv
as §1
Zur Prüfung auf protektive Wirksamkeit werden junge Pflanzen mit der Wirkstoff zubereitung in der angegebenen Aufwandmenge besprüht. Nach Antrocknen des Spritzbelages werden die Pflanzen mit einer wäßrigen Konidiensuspension des Apfelschorferregers Venturia inaequalis inokuliert und verbleiben dann 1 Tag bei ca. 20°C und 100% relativer Luftfeuchtigkeit in einer Inkubations-kabine.
Die Pflanzen werden dann im Gewächshaus bei ca, 21°C und einer relativen Luftfeuchtigkeit von ca. 90% aufgestellt.
10 Tage nach der Inokulation erfolgt die Auswertung. Dabei bedeutet 0% ein Wirkungsgrad, der demjenigen der Kontrolle entspricht, während ein Wirkungsgrad von 100% bedeutet, daß kein Befall beobachtet wird.

Where [4] appears, read: reversed-phase c18 hplc, HPLC, 40°C, 0.1% aqueous formic acid / acetonitrile gradient 10% to 95%, read-out: log p.
[5] abbreviates: HPLC method of the footnote to Tabelle 1.

Where two headings read alike, the source gives them in different places.

In the case of `CC(Br)C(=O)c1ccc(Cl)cc1` (stereo not shown) [2-Brom-1-(4-chlorphenyl)propan-1-on], the chromatographic logP in series [1] (reversed-phase c18 hplc, HPLC method of the footnote to Tabelle 1) came out at 3.39.

Consider `Cc1nnc(Cl)c(-c2cccs2)c1-c1ccc(Cl)cc1` [Beispiel 29, 3-Chlor-5-(4-chlorphenyl)-4-(2-thienyl)-6-methylpyridazin], for which the chromatographic logP in series [1] (c18 reversed-phase hplc, HPLC method of the footnote to Tabelle 1) stood at 3.41; in series [1] (setting [4]), 3.41. In addition, the Wirkungsgrad in series [2] and in series [3] was at least 70% in each case.

As usually defined, the logP is a log measure of how a compound divides between an organic and an aqueous phase. Lower therefore signals a more hydrophilic compound. In series [1] (setting [5]), `CC1(O)OC(=O)C(c2cccs2)=C1c1ccc(Cl)cc1` (stereo not shown) [4-(4-Chlorphenyl)-5-hydroxy-5-methyl-3-(2-thienyl)furan-2(5H)-on] registered a logP of 3.05.

`Cc1n[nH]c(=O)c(-c2cccs2)c1-c1ccc(Cl)cc1` [5-(4-Chlorphenyl)-4-(2-thienyl)-6-methylpyridazin-3(2H)-on] yielded a logP in series [1] (setting [5]) of 2.71.

With `Cc1n[nH]c(=O)c(-c2cccn2C)c1-c1ccc(Cl)cc1` [5-(4-Chlorphanyl)-4-(1-Methyl-1H-pyrrol-2-yl)-6-methylpyridazin-3(2H)-on], the logP in series [1] (setting [5]) was 2.45.

Compound `Cc1nc(-c2c(-c3ccc(Cl)cc3)c(C)n[nH]c2=O)cs1` [5-(4-Chlorphenyl)-4-(2-methyl-1,3-thiazol-4-yl)-6-methylpyridazin-3(2H)-on] came in with a logP in series [1] (setting [5]) of 2.26.

As to `Cc1n[nH]c(=O)c(-c2nc(Cl)c(Cl)s2)c1-c1ccc(Cl)cc1` [5-(4-Chlorphenyl)-4-(4,5-Dichlor-1,3-thiazol-2-yl)-6-methylpyridazin-3(2H)-on], in series [1] (setting [5]), the logP worked out at 3.94.

On to `Cc1nnc(Cl)c(-c2cccn2C)c1-c1ccc(Cl)cc1` [Beispiel 27], for which the chromatographic logP in series [1] (setting [4]) was found to be 3.24.

With `Cc1nc(-c2c(Cl)nnc(C)c2-c2ccc(Cl)cc2)cs1` [Beispiel 26], the chromatographic logP in series [1] (setting [4]) stood at 2.82.

Regarding `Cc1nnc(Cl)c(-c2nc(Cl)c(Cl)s2)c1-c1ccc(Cl)cc1` [Beispiel 28], the chromatographic logP in series [1] (setting [4]) stood at 4.32.
